Laboratory results from the Kinase Knowledgebase extract (Sharma et al. 2016).

What follows are compounds tested against MAPK14 (human) (UniProt Q16539) (assay: Inhibition of LPS Stimulated TNF Production by U937 Cells). Conditions: not given.
MAPK14 (human), sequence (Q16539 whole entry, looked up): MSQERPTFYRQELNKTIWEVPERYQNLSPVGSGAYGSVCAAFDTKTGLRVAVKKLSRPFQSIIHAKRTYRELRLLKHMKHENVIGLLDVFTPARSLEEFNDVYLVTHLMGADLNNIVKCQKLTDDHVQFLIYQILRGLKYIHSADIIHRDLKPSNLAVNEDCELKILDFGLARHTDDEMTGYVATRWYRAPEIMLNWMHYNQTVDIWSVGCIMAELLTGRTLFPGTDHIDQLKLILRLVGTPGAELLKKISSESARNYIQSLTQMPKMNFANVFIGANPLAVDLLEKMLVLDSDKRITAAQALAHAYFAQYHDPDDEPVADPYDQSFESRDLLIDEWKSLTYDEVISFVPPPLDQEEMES
For `Clc1ccc(-c2n[nH]cc2-c2ccncc2)cc1Cl`, the IC50 was 170 nM. `CCN(CC)CCn1cc(-c2ccnc(NCc3ccc(F)cc3)c2)c(-c2ccc(F)cc2)n1` showed an IC50 of 700 nM. With `O=C(N[C@H](Cc1ccccc1)c1[nH]nc(-c2ccc(F)cc2)c1-c1ccncc1)c1ccc(F)cc1` the IC50 was greater than 1000 nM. `Cc1nn(C)c(-c2ccc(Cl)cc2)c1-c1ccncc1` gave an IC50 of 2700 nM. Compound `O=C(NCCCc1[nH]nc(-c2ccc(F)cc2)c1-c1ccncc1)NCCCN1CCCC1=O` has an IC50 greater than 1000 nM. `CN(C)CCn1cc(-c2ccnc(F)c2)c(-c2ccc(F)cc2)n1` showed an IC50 of 4210 nM. Work on `CCS(=O)(=O)N1CCC(c2[nH]nc(-c3ccc(F)cc3)c2-c2ccncc2)CC1` yielded an IC50 of 250 nM. In the case of `Fc1ccc(-c2[nH]nc(-c3ccccc3)c2-c2ccncc2)cc1`, the IC50 is reported as 77 nM. `COc1ccc(S(=O)(=O)NCc2[nH]nc(-c3ccc(F)cc3)c2-c2ccncc2)cc1` was tested, and the IC50 was 1780 nM. `Cc1cccc(C)c1NC(=O)NCc1[nH]nc(-c2ccc(F)cc2)c1-c1ccncc1` gave an IC50 of 2360 nM. `CC(C)c1ccc(S(=O)(=O)NCc2[nH]nc(-c3ccc(F)cc3)c2-c2ccncc2)cc1` was tested, and the IC50 was greater than 1000 nM. Compound `Cc1n[nH]c(-c2ccc(F)c(F)c2)c1-c1ccncc1` has an IC50 of 329 nM. `O=C(Nc1ccccc1F)N1CCC(c2[nH]nc(-c3ccc(F)cc3)c2-c2ccncc2)CC1` was tested, and the IC50 was 92 nM. With `Cn1cc(-c2ccncc2)c(-c2ccc3c(c2)OCO3)n1` the IC50 was 322 nM. In the case of `Cn1cc(-c2ccnc(CCc3ccc(F)cc3)c2)c(-c2ccc(F)cc2)n1`, the IC50 is reported as 327 nM. In the case of `C#CCNc1n[nH]c(-c2ccc(F)cc2)c1-c1ccncc1`, the IC50 is reported as 300 nM. Compound `O=C(c1cccs1)N1CCC(c2[nH]nc(-c3ccc(F)cc3)c2-c2ccncc2)CC1` has an IC50 of 370 nM. With `Cc1c(-c2ccncc2)c(-c2ccc(F)cc2)nn1CC(=O)NCCc1ccc(Oc2ccccc2)cc1` the IC50 was 780 nM. `CC(=O)OC(C)(C)C(=O)N[C@@H](C)c1[nH]nc(-c2ccc(F)cc2)c1-c1ccncc1` was tested, and the IC50 was 870 nM. In the case of `OCCn1cc(-c2ccnc(F)c2)c(-c2ccc(F)cc2)n1`, the IC50 is reported as 2670 nM. In the case of `CN(C)CCn1cc(-c2ccnc(N(C)C)c2)c(-c2ccc(F)cc2)n1`, the IC50 is reported as greater than 10000 nM. With `COc1ccccc1C(=O)N[C@H](Cc1ccccc1)c1[nH]nc(-c2ccc(F)cc2)c1-c1ccncc1` the IC50 was greater than 1000 nM. Compound `Cc1n[nH]c(-c2ccc(C(F)(F)F)cc2)c1-c1ccncc1` has an IC50 of 522 nM. Work on `Cc1[nH]nc(-c2ccc(Cl)cc2)c1-c1ccncc1` yielded an IC50 of 201 nM. `OCCn1cc(-c2ccnc(/C=C/c3ccc(F)cc3)c2)c(-c2ccc(F)cc2)n1` was tested, and the IC50 was 347 nM. In the case of `C[C@H](NC(=O)NCc1ccccc1)c1[nH]nc(-c2ccc(F)cc2)c1-c1ccncc1`, the IC50 is reported as 840 nM. In the case of `Cn1cc(-c2ccncc2)c(-c2cccc(C(F)(F)F)c2)n1`, the IC50 is reported as 402 nM. `O=C(NCc1[nH]nc(-c2ccc(F)cc2)c1-c1ccncc1)c1ccccc1C(F)(F)F` gave an IC50 of 3950 nM.

Same assay, conditions: concentration not given here
`CCCNC(=O)Cn1nc(-c2ccc(F)cc2)c(-c2ccncc2)c1C` was tested, and the inhibition was 31%. `O=S(=O)(NCc1[nH]nc(-c2ccc(F)cc2)c1-c1ccncc1)c1ccc(-c2ccccn2)s1` was tested, and the inhibition was 63%. In the case of `O=S(=O)(NCCc1[nH]nc(-c2ccc(F)cc2)c1-c1ccncc1)c1cccc2cnccc12`, the inhibition is reported as 91%. For `O=C(NCc1[nH]nc(-c2ccc(F)cc2)c1-c1ccncc1)c1cccc(C(F)(F)F)c1`, the inhibition was 13%. Compound `COc1ccc(Cl)cc1S(=O)(=O)N[C@@H](C)c1[nH]nc(-c2ccc(F)cc2)c1-c1ccncc1` has an inhibition of 76%. Compound `CCCOC(=O)N[C@@H](C)c1[nH]nc(-c2ccc(F)cc2)c1-c1ccncc1` has an inhibition of 61%. Work on `O=S(=O)(NCc1[nH]nc(-c2ccc(F)cc2)c1-c1ccncc1)c1cccc2cnccc12` yielded an inhibition of 24%. `O=C(NCc1[nH]nc(-c2ccc(F)cc2)c1-c1ccncc1)Nc1ccccc1OC(F)(F)F` gave an inhibition of 25%. Work on `CCc1ccccc1NC(=O)NCc1[nH]nc(-c2ccc(F)cc2)c1-c1ccncc1` yielded an inhibition of 21%. For `C[C@H](NS(=O)(=O)c1ccccc1S(C)(=O)=O)c1[nH]nc(-c2ccc(F)cc2)c1-c1ccncc1`, the inhibition was 73%. Work on `C[C@@H](NC(=O)c1ccccc1)c1[nH]nc(-c2ccc(F)cc2)c1-c1ccncc1` yielded an inhibition of 19%. `CNC(=O)N[C@@H](C)c1[nH]nc(-c2ccc(F)cc2)c1-c1ccncc1` gave an inhibition of 79%. In the case of `O=C(NCc1[nH]nc(-c2ccc(F)cc2)c1-c1ccncc1)[C@@H]1C[C@@H]1c1ccccc1`, the inhibition is reported as 28%. With `C[C@H](NS(=O)(=O)c1ccc(CNC(=O)c2ccccc2)s1)c1[nH]nc(-c2ccc(F)cc2)c1-c1ccncc1` the inhibition was 83%. With `C[C@@H](NS(=O)(=O)[C@@]12CC[C@H](CC1=O)C2(C)C)c1[nH]nc(-c2ccc(F)cc2)c1-c1ccncc1` the inhibition was 54%. Work on `Cc1ccc(S(=O)(=O)N[C@@H](Cc2ccccc2)C(=O)NCCCc2[nH]nc(-c3ccc(F)cc3)c2-c2ccncc2)cc1` yielded an inhibition of 36%. In the case of `C[C@H](NS(=O)(=O)c1ccc(F)c(Cl)c1)c1[nH]nc(-c2ccc(F)cc2)c1-c1ccncc1`, the inhibition is reported as 85%. With `CNC(=O)CC[C@H](NC(=O)Nc1c(C)cccc1C)c1[nH]nc(-c2ccc(F)cc2)c1-c1ccncc1` the inhibition was 9%.
